Measured values reported in US20180132470A1, “CONTROLLED STAND-ALONE MATRIX SYSTEM FOR THE CONTROLLED DISTRIBUTION OF ACTIVE SUBSTANCES” (AB7 Innovation S.A.S.U., priority 2015, published 2018).

Assay: Release of IR3535 from cast polyurethane matrix, with and without heating activation
Assay type: physicochemical
Method: For the matrix, the same inputs are used as in Example 1. The PMEO is replaced by insecticide (IR3535®), which represents 30% by weight in relation to the total weight of the matrix.
The electronic card is programmed as in Example 2 except that the heating is systematically cut off when the intra-matrix temperature reaches 150° C.
FIG. 4 represents the reference release profile of IR3535® which is a non-volatile substance at ambient temperature. […] The sequential and successive activations were performed for 18 hours at a rate of 10 minutes heating followed by 20 minutes' pause. The intra-matrix temperature measured was 45° C.

For CCCCN(CCC(=O)OCC)C(C)=O [IR3535®, ethyl-3-acetyl(butyl)amino-propanoate], the “residual quantity of IR3535 in relation to the quantity initially incorporated” value (after 590 sequences of heating) was 9.5 % by weight, the “release of IR3535 initially incorporated” value (after 18 hours, sequential activations 10 min heating / 20 min pause, intra-matrix 45° C., cast polyurethane matrix) was “up to 3 % by weight” and the “release of IR3535 by passive diffusion” value (same polyurethane matrix unheated at ambient temperature, even after 20 hours) was “releases absolutely nothing”. For the same molecule, the “average quantity of IR3535 released” value (solely at moments of activation, cast polyurethane matrix) was 3.5 mg/h.
